Calls of active or inactive are those of the source. The rule behind the calls is not given here.
Biological target: Ribonuclease HI (Escherichia coli (strain K12)) (UniProt P0A7Y4)
Test: inhibition of bacterial ribonuclease H activity – biochemical, FRET RNA/DNA duplex cleavage, dose response (AID 365)
Conditions: E. coli RNase H, FRET RNA/DNA cleavage fluorescence

Ribonuclease HI (Escherichia coli (strain K12)), sequence (P0A7Y4 whole entry, looked up): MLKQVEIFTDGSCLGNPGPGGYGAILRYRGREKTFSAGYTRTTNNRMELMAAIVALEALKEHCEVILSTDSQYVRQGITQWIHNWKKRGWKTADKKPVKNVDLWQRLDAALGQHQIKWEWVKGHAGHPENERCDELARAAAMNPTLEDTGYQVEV

SMILES	IC50
O=C1C(Cl)=CC(=NS(=O)(=O)c2ccccc2)C=C1Cl	inactive
COc1cc([C@@H]2c3cc4c(cc3C[C@H]3COC(=O)[C@@H]32)OCO4)cc(OC)c1O	2.4 µM
CCc1c(O)c2c(c(O)c1C(C)=O)C(=O)c1c(cc(O)c(C(=O)O)c1C(=O)O)C2=O	> 100 µM (inactive)
CCC(=O)Nc1sc2c(c1C(=O)Nc1ccc(OC)cc1)CCCCC2	9 µM
CC(C)=CCC/C(C)=C/Cc1cc(/C=C/c2cc(O)c(C/C=C(\C)CCC=C(C)C)c(O)c2)cc(O)c1O	1.7 µM
O=[N+]([O-])c1ccc2c(N=Nc3ccc4ccccc4c3O)c(O)cc(S(=O)(=O)O)c2c1	3 µM
Cc1ccc(NC(=O)c2c(NC(=O)c3ccccc3F)sc3c2CCCCC3)cc1	0.6 µM
O=[N+]([O-])c1ccc(S(=O)(=O)Cc2ccccc2)c2nonc12	inactive
O=C1c2ccccc2C(=O)c2c(O)c(O)cc(O)c21	inactive
CCOc1ccc(NC(=O)c2c(NC(=O)c3ccccc3)sc3c2CCCCC3)cc1	0.33 µM
Cc1sc(NC(=O)C2CCCO2)c(C(N)=O)c1C (configuration not stated)	> 100 µM (inactive)
NC(=O)c1c(N)sc2c1CCCCC2	> 100 µM (inactive)
O=C1/C(=C/c2ccc(O)c(O)c2)SC(=S)N1c1ccc(O)cc1	8 µM
Cc1ccc(C2COc3cc(O)c(O)cc3C2)cc1 (configuration not stated)	inactive
CC(C)=CCC(O)C1=CC(=O)c2c(O)ccc(O)c2C1=O (configuration not stated)	inactive
CC1C2C=CC1C(c1c3ccc(=O)c(O)c-3oc3c(O)c(O)ccc13)C2C(=O)O (configuration not stated)	1.3 µM
Nc1ccc(S(=O)(=O)O)c2cccc(O)c12	inactive
O=C1NC(=O)/C(=C/c2ccc(-c3ccc(O)c(C(=O)O)c3)o2)S1	1.3 µM
COc1ccc(N2C(=O)/C(=C\c3cn(CC(=O)Nc4ccccc4)c4ccccc34)C(=O)NC2=S)cc1	2.2 µM
COC([CH2][Hg][n]1cnc2c1c(=O)n(C)c(=O)n2C)CN1C(=O)c2ccccc2S1(=O)=O (configuration not stated)	inactive
CCCc1cc(=O)oc2c3c(c4c(c12)OC(C)(C)C=C4)O[C@H](C)[C@@H](C)[C@H]3OC	inactive
N#Cc1c(N)nc(SCC(=O)c2ccc(O)c(O)c2)c(C#N)c1-c1ccc(O)cc1	1.7 µM
O=C1c2ccccc2C(=O)c2c(NC3CCCCC3)ccc(Nc3ccc(S(=O)(=O)O)cc3)c21	inactive
NCC[Se][Se]CCN	> 100 µM (inactive)
O=S(=O)(O)c1cc(N=[N+]([O-])c2cc(S(=O)(=O)O)c3ccccc3c2)cc2ccccc12	0.7 µM

SMILES	IC50
C[C@H]1[C@H](O)c2c(c3c(c4c(-c5ccccc5)cc(=O)oc24)OC(C)(C)C=C3)O[C@@H]1C	> 100 µM (inactive)
CC1=NN(c2ccc(S(N)(=O)=O)cc2)C(=O)/C1=C/c1ccc(-c2ccc(Cl)cc2Cl)o1	9 µM
O=c1[nH]c2[nH]c(=S)[nH]c(=S)c2[nH]1	> 100 µM (inactive)
CN(C)CS/C(N)=N/C(O)C(Cl)(Cl)Cl (configuration not stated)	inactive
Cc1ccc(C)n1-c1ccc(O)c(C(=O)O)c1	> 100 µM (inactive)
Cc1ccc(S(=O)(=O)N=C2C=CC(=O)C=C2)c(C)c1	7.8 µM
c1ccc(C(c2cccc3c2ccc2ccccc23)C(c2ccccc2)c2cccc3c2ccc2ccccc23)cc1 (configuration not stated)	7.5 µM
COc1cccc2cc(C(N)=O)c(=O)oc12	> 100 µM (inactive)
Cc1cccc(NC(=O)c2c(NC(=O)c3ccc([N+](=O)[O-])cc3)sc3c2CCCC3)c1	0.28 µM
C=CCN1C(=O)/C(=C\c2ccc([N+](=O)[O-])o2)C(=O)NC1=S	72 µM
O=C1c2cc([N+](=O)[O-])ccc2-c2ccc3c4ccc5c6c(ccc(c7ccc1c2c73)c64)C(=O)c1cc([N+](=O)[O-])ccc1-5	1.8 µM
Cc1ccc(NC(=O)c2c(NC(=O)C(F)(F)F)sc(-c3ccccc3)c2C)c(C)c1	8.1 µM
O=C(Nc1sc2c(c1C(=O)Nc1cccc3ccccc13)CCCCC2)c1ccccc1F	5 µM
O=C1C=C(NCCc2cc(Br)c(O)c(Br)c2)C(=O)c2ncccc21	inactive
Cc1cc(I)c2c(c1)C1C=CCC1C(C(=O)O)N2 (configuration not stated)	inactive
O=C1O/C(=C(/C(=O)O)c2ccc(O)cc2)C(O)=C1c1cc2c3c(c(O)cc(C4=C(O)/C(=C(\C(=O)O)c5ccc(O)cc5)OC4=O)c3c1)OC2=O	inactive
Cc1cc(C(=O)O)ccc1-n1c(C)ccc1C	> 100 µM (inactive)
COc1ccc(NC(=O)c2c(N)sc(-c3ccccc3)c2C)cc1	2 µM
CC(C)c1ccc(O)c(O)c(=O)c1	inactive
O=C1/C(=C/c2ccc(O)c(O)c2)SC(=S)N1C1CCCCC1	3 µM
O=C(O)c1c(Br)c(Br)c(Br)c(Br)c1C1c2ccc(O)cc2Oc2cc(O)ccc21	8 µM
O=C(O)CCc1c2ccc(=O)c(O)c-2oc2c(O)c(O)ccc12	1.5 µM
COc1cc(C=O)ccc1OCCCOc1cccc(Oc2ccccc2)c1	4.1 µM
CCOc1ccc(C(=O)Nc2ccc3c(c2)C(=O)c2ccccc2C3=O)cc1	4 µM
CC(C)=Cc1cc(CCC/C(C)=C/Cc2c(O)cc(C)c(C(=O)O)c2O)co1	inactive

SMILES	IC50
Cc1sc(NC(=O)c2ccc(Br)o2)c(C(N)=O)c1C	4 µM
Cc1ccc(-n2c(/C=C/c3ccc(O)c(O)c3)nc3ccccc3c2=O)cc1	5 µM
C=C(CCC(C(=O)O)C1CCC2(C)C3=C(CCC12C)C1(C)CCC(O)C(C)(C)C1CC3)C(C)C (configuration not stated)	9 µM
Oc1c(Br)cc(/C=N/Nc2nnc3c(n2)[nH]c2ccccc23)c(Br)c1O	4.3 µM
COc1cc(-c2[o+]c3cc(O)cc(O)c3cc2O)cc(O)c1O	inactive
Cc1cc(O)c2c(c1O)C(=O)C13C(=C2O)C(=O)C2C(O)C1C1C(O)C3C(=O)C3=C(O)c4c(O)cc(C)c(O)c4C(=O)C321 (configuration not stated)	inactive
O=C1NC(=S)N(c2cccc(Cl)c2)C(=O)/C1=C\C=C\c1ccco1	inactive
COc1ccc(C2COc3cc(O)c(O)cc3C2)cc1 (configuration not stated)	inactive
Cc1ccc(S(=O)(=O)N=C2C=C(Cl)C(=O)C(Br)=C2)cc1	inactive
O=C1C=CC(=NS(=O)(=O)c2ccc(Cl)c([N+](=O)[O-])c2)C=C1	7 µM
COc1cc(/C=N\c2sc3c(c2C(=O)NCc2ccccc2)CCCC3)cc(Cl)c1O	0.95 µM
C=C1C(=O)O[C@@H]2/C=C(\C)CC/C=C(\C(=O)O)CC/C=C(\C)CC[C@H]12	> 100 µM (inactive)
Oc1ccc(/C=N/Nc2nncc(-c3ccccc3)n2)c(O)c1O	7 µM
Ic1ccc2c(c1)N(c1ccccc1)c1cc(N=c3ccc4nc5ccc(I)cc5n(-c5ccccc5)c-4c3)ccc1N2	4.1 µM
Nc1nc(Sc2ccc([N+](=O)[O-])c3nonc23)c2[nH]cnc2n1	> 100 µM (inactive)
FC(F)(F)c1nc2ccc(SSc3ccc4nc(C(F)(F)F)[nH]c4c3)cc2[nH]1	8 µM
O=C(NC(=S)Nc1cc(-c2nc3ccccc3s2)ccc1Cl)c1ccc(F)cc1	6 µM
Cc1onc(-c2ccccc2)c1C(=O)Nc1sc(C)c(C)c1C(N)=O	inactive
COc1ccc2oc(=O)c(-c3csc(Nc4ccc(Br)cc4)n3)cc2c1	2.8 µM
O=C1NC(=S)N(c2ccc(Cl)cc2)C(=O)/C1=C\C=C\c1ccccc1[N+](=O)[O-]	8.8 µM
CC(C)c1ccc(O)c(=O)cc1	> 100 µM (inactive)
Cc1ccc(C(=O)NC(=S)Nc2ccc(-c3nc4ccccc4s3)cc2)cc1[N+](=O)[O-]	3.7 µM
CCOc1ccc(C2=CC(=O)C=CC2=O)cc1	inactive
COc1ccccc1NC(=O)c1c(NC(=O)Cc2ccccc2)sc2c1CCCCC2	0.26 µM
Cc1c(O)c(Br)c(C)c(O)c1Br (tested in a mixture with another compound)	> 100 µM (inactive)

SMILES	IC50
CC(=O)O[C@H](C)[C@@H]1C2=C(C(=O)C[C@]1(C)O)C(=O)c1c(ccc(-c3ccc4c(c3O)C(=O)C3=C(C4=O)[C@@H]([C@@H](C)OC(C)=O)[C@@](C)(O)CC3=O)c1O)C2=O	> 100 µM (inactive)
O=C1C=C/C(=N\S(=O)(=O)c2cc(Cl)ccc2Cl)C=C1Cl	7 µM
N#Cc1c(NC(=O)C(F)(F)F)sc2c3c(=O)c4ccccc4c(=O)c=3oc3ccccc3c12	inactive
CC1=c2c(oc3cc(O)c(Nc4c(C)cc(O)cc4O)c(C)c23)=CC(=O)C1=Nc1c(C)cc(O)cc1O	5.2 µM
O=C1C(Cl)=C(NC(=O)c2ccccc2)C(=O)C(Cl)=C1NC(=O)c1ccccc1	> 100 µM (inactive)
Nc1c(S(=O)(=O)O)cc(Nc2cccc(S(N)(=O)=O)c2)c2c1C(=O)c1ccccc1C2=O	inactive
CCOC(=O)Oc1c(OC)cc(C(=O)O[C@@H]2C[C@@H]3CN4CCc5c([nH]c6cc(OC)ccc56)[C@H]4C[C@@H]3[C@H](C(=O)OC)[C@H]2OC)cc1OC	> 100 µM (inactive)
Cc1cccc(NCC(=O)N/N=C\c2c(Br)cc(Br)c(O)c2Br)c1	inactive
Cc1sc(NC(=O)c2cccc([N+](=O)[O-])c2)c(C(N)=O)c1C	0.7 µM
Oc1ccc2ccccc2c1C=NCc1c(O)ccc2ccccc12	inactive
NC(=O)c1c(NC(=O)COc2ccccc2)sc2c1CCCCC2	2 µM
Cc1nn(CC(=O)Nc2sc(C)c(C)c2C(N)=O)c(C)c1[N+](=O)[O-]	8.2 µM
Cc1sc(NC(=O)C2CC3CCC2C3)c(C(N)=O)c1C (configuration not stated)	inactive
Oc1cc(O)c2c(c1)OC(c1ccc(O)c(O)c1)C(OC1(c3cc(O)c(O)c(O)c3)Oc3cc(O)cc(O)c3C(O)C1O)C2 (configuration not stated)	> 100 µM (inactive)
C=C(C)[C@@H]1CCc2c(O)c(O)c(=O)cc(C)c2C1	inactive
O=C1C=CC2=C3c4cc(O)c(O)cc4CC3(O)COC2=C1O (configuration not stated)	inactive
O=C(O)C1Nc2c(Cl)cc(Cl)cc2C2C=CCC12 (configuration not stated)	inactive
COC(=O)c1c(N)sc(C(=O)Nc2ccc(OC)cc2)c1C	inactive
Cc1ccc(S(=O)(=O)/N=C2\C=C(Sc3ncn[nH]3)C(=O)c3ccccc32)cc1	inactive
Cc1cc(C)c2c(=O)[nH]c(SCC(=O)c3ccc(O)c(O)c3)nc2n1	18 µM
CCOc1ccc(N2C(=O)/C(=C/c3ccc(Br)o3)C(=O)NC2=S)cc1	0.8 µM
O=c1c(O)c(-c2ccc(O)c(O)c2)oc2cc(O)cc(O)c12	inactive
